# Key:
# [1] = system: J553x(HIIIAxA188) null and transgenic corn; experiment: Fipronil/Pyraclostrobin study, initial trial: seed treatment, greenhouse growth, LemnaTec Scanalyzer imaging and harvest; assay type: in vivo, maize (Zea Mays L.); settings: for Internode 1 length / Internode 2 length / Internode 3 length: seed treatment; for Fresh Weight: hand-collected
# Experimental: (§1) J553x(HIIIAxA188) null and transgenic corn seeds of the T2 generation were treated with deionized water (Blank), 200 grams fipronil, 10 grams pyraclostrobin (F500), and 200 grams fipronil+10 grams pyraclostrobin; all formulation rates were grams/100 kg seed. Every formulation was applied to approximately 80 seeds. The formulation was pipetted into a 125 ml flask along the sides and bottom of the flask before adding the seeds and shaking the flask for 30 seconds. The coated seeds were then removed from the flask and placed in a plastic dish for drying.
# (§2) Seventy-five 3-L pots per treatment (Blank, fipronil, pyraclostrobin, and fipronil+pyraclostrobin) were filled with potting media, labeled with colored stakes, and given a unique barcode. One seed per pot was planted at a depth of approximately 2 cm and covered with media. The media was lightly watered to imbibe the seeds, while allowing for ample oxygen exchange and so that the chemical coatings on the seeds remained intact. After planting, the pots were randomly distributed into three replicate blocks (1 bench=1 block), each with 25 plants of every treatment.
# (§3) The plants were maintained in a greenhouse under optimal, well-watered conditions (80-90% field capacity) upon emergence. Supplemental nutrients were administered every third day during watering. The greenhouse temperature was maintained at 30° C., relative humidity at 75%, and light at 350 μmol m^−2s^−1, in a 15-hour day/9-hour night photoperiod. Supplemental lighting was provided using metal-halide lights. Once per week, the pots were randomly mixed within each block.
# (§4) On day 21, the plants were imaged to collect the phenotypic data as described in the Imaging Procedures section. Leaves were sampled for transgene copy number on day 25 to identify the null and transgenic plants. On day 28, the plants were imaged and then harvested to collect fresh weight. The presence of the transgene was determined by the Taqman molecular analysis technique. Differences in the phenotypic data collected during the imaging process and in fresh weight among the four treatments and between the null and transgenic plants were assessed. The chemical by transgenic interactions were determined.
# (§5) Imaging of the plants was facilitated using a LemnaTec Scanalyzer (Würselen, Germany), which includes a conveyor belt, an imaging station, a watering station, and computers for collecting, processing, and storing the image data. The cameras have a resolution of 1280×960 pixels and operate in 24-bit color.
# (§6) The plants were manually transferred by block onto the conveyor system of the scanalyzer. Each plant was then moved through the imager automatically. At the imaging station, cameras collected the top view image and two side view images. The side view images were the transverse view and the view parallel with the plane of the plant.
# (§7) As described in the formula (see Appendix A), the scanalyzer calculates plant volume as a number of pixels. To assign a physiologically meaningful value to the volume measurements, a separate experiment was conducted. The plants were scanned with the scanalyzer then harvested. The plant material was placed into a graduated cylinder filled to a known volume with water. The difference between the water plus plant material and water alone provided a known plant volume in mL.
# (§8) Using the LemnaTec scanalyzer, we collected stem width; stalk volume; top, transverse, and parallel view plant areas; top, transverse, and parallel view green and yellow pixel counts; stem length; leaf angles and internode lengths through leaf 5; plant width and height; total leaf length; and total plant length.
# (§9) Fresh Weight—A measurement of the fresh weight of the plant in grams. Hand-collected fresh weight is measured by harvesting the plant and weighing it on a balance. LemnaTec fresh weight is calculated by the scanalyzer based on plant volume and plant age. The zoom angles of the camera lenses are normalized using a calibration table. […]
# [2] = system: J553x(HIIIAxA188) null and transgenic corn; experiment: Fipronil/Pyraclostrobin study, second trial: seed treatment, greenhouse growth, LemnaTec Scanalyzer imaging; assay type: in vivo, maize (Zea Mays L.)
# Experimental: as §1, §2, §3, §4, §5, §6, §7, §8, §9
# [3] = Fipronil-Worldwide technical Bulletin, BASF; cited from earlier work
# [4] = initial trial, relative to all other treatments
smiles,measurement,setting,value
"N#Cc1nn(-c2c(Cl)cc(C(F)(F)F)cc2Cl)c(N)c1[S+]([O-])C(F)(F)F (stereo not drawn) [Fipronil, 5-amino-1-(2,6-dichloro-α,α,α-trifluoro-p-tolyl)-4-trifluoromethylsulfinylpyrazole-3-carbonitrile]",# Fully Expanded Leaves,[1]; Avg,3.0
same,Leaf Angle 0,[1]; Avg,63.2 degrees
same,Leaf Angle 1,[1]; Avg,58.9 degrees
same,Plant Volume,[1]; Avg,6.70E+06 pixels
same,Stem Length,[1]; Avg,108.8 cm
same,"stalk area from the transverse view, Pixel Count",[1]; Avg,4910 pixels
same,Internode 1 length,[1]; Avg of null and transgenic,35.9 cm
same,Internode 2 length,[1]; Avg of null and transgenic,44.2 cm
same,Internode 3 length,[1]; Avg of null and transgenic,40.0 cm
same,# Fully Expanded Leaves,[1]; Null plants,3.1
same,Leaf Angle 0,[1]; Null plants,57.5 degrees
same,Leaf Angle 1,[1]; Null plants,63.6 degrees
same,Plant Volume,[1]; Null plants,6.53E+06 pixels
same,Stem Length,[1]; Null plants,110.4 cm
same,"stalk area from the transverse view, Pixel Count",[1]; Null plants,5081 pixels
same,Internode 1 length,[1]; Null plants,35.3 cm
same,Internode 2 length,[1]; Null plants,45.9 cm
same,Internode 3 length,[1]; Null plants,42.4 cm
same,Internode 1 length,[1]; Trans (transgenic) plants,36.6 cm
same,Internode 2 length,[1]; Trans (transgenic) plants,42.5 cm
same,Internode 3 length,[1]; Trans (transgenic) plants,37.7 cm
same,# Fully Expanded Leaves,[1]; Trans plants,3.0
same,Leaf Angle 0,[1]; Trans plants,68.7 degrees
same,Leaf Angle 1,[1]; Trans plants,54.4 degrees
same,Plant Volume,[1]; Trans plants,6.86E+06 pixels
same,Stem Length,[1]; Trans plants,107.1 cm
same,"stalk area from the transverse view, Pixel Count",[1]; Trans plants,4744 pixels
same,Fresh Weight,[1]; Avg,162.8 grams
same,Fresh Weight,[1]; Null plants,160.9 grams
same,Fresh Weight,[1]; Trans plants,164.7 grams
same,fresh mass (in words),"[1]; initial trial, in general",enhanced
same,plant height (in words),"[1]; initial trial, in general",enhanced
same,plant volume (in words),"[1]; initial trial, in general",enhanced
same,plant width (in words),"[1]; initial trial, in general",enhanced
same,greenness (in words),[1]; [4],enhanced
same,internode length (in words),[1]; [4],enhanced
same,leaf angle (in words),[1]; [4],enhanced
same,plant area (in words),[1]; [4],enhanced
same,Dark Green Count,"[1]; parallel view, Avg",16389.5 pixels
same,Medium Green Count,"[1]; parallel view, Avg",5662.4 pixels
same,Plant Area,"[1]; parallel view, Avg",23760.8 pixels
same,Yellow Count,"[1]; parallel view, Avg",1708.9 pixels
same,Dark Green Count,"[1]; parallel view, Null plants",15955.0 pixels
same,Medium Green Count,"[1]; parallel view, Null plants",5470.9 pixels
same,Plant Area,"[1]; parallel view, Null plants",23035.0 pixels
same,Yellow Count,"[1]; parallel view, Null plants",1609.1 pixels
same,Dark Green Count,"[1]; parallel view, Trans plants",16812.3 pixels
same,Medium Green Count,"[1]; parallel view, Trans plants",5848.7 pixels
same,Plant Area,"[1]; parallel view, Trans plants",24467.0 pixels
same,Yellow Count,"[1]; parallel view, Trans plants",1806.0 pixels
same,Medium Green Count,"[1]; top view, Avg",17465 pixels
same,Medium Green Count,"[1]; top view, Null plants",17038 pixels
same,Medium Green Count,"[1]; top view, Trans plants",17881 pixels
same,Medium Green Count,"[1]; transverse view, Avg",9089.0 pixels
same,Yellow Count,"[1]; transverse view, Avg",3363.6 pixels
same,Medium Green Count,"[1]; transverse view, Null plants",9132.8 pixels
same,Yellow Count,"[1]; transverse view, Null plants",3268.7 pixels
same,Medium Green Count,"[1]; transverse view, Trans plants",9046.4 pixels
same,Yellow Count,"[1]; transverse view, Trans plants",3455.9 pixels
same,Broad Side Drk Grn,[2]; Avg,25067.65 pixels
same,Broad Side Plnt Area,[2]; Avg,35413.12 pixels
same,Calc Fresh Weight,[2]; Avg,100.77 g
same,Narrow Side Drk Grn,[2]; Avg,25969.34 pix
same,Plant Volume,[2]; Avg,9.19 M pixels
same,Top Drk Grn,[2]; Avg,57132.20 pixels
same,Broad Side Drk Grn,[2]; Null plants,26176.97 pixels
same,Broad Side Plnt Area,[2]; Null plants,36398.18 pixels
same,Calc Fresh Weight,[2]; Null plants,99.88 g
same,Narrow Side Drk Grn,[2]; Null plants,24703.55 pix
same,Plant Volume,[2]; Null plants,8.89 M pixels
same,Top Drk Grn,[2]; Null plants,56608.71 pixels
same,Broad Side Drk Grn,[2]; Trans plants,23958.33 pixels
same,Broad Side Plnt Area,[2]; Trans plants,34428.06 pixels
same,Calc Fresh Weight,[2]; Trans plants,101.65 g
same,Narrow Side Drk Grn,[2]; Trans plants,27235.14 pix
same,Plant Volume,[2]; Trans plants,9.50 M pixels
same,Top Drk Grn,[2]; Trans plants,57655.69 pixels
same,reported plant performance effects,[3],"enhance overall root system and root hair development, increase tiller number and productivity, increase photosynthetic capacity (plant greenness), increase leaf area and plant height, stimulate early flowering and grain maturation leading to significant increases in yield"

# Source: patent publication US20100093715A1, “Plant productivity enhancement by combining chemical agents with transgenic modifications” (BASF SE, priority 2007, published 2010)
